This note sets out measurements from patent US4749694A, “Novel lysine esters used as absorption” (Merck & Co., Inc., priority 1984, dated 1988).

Data set [1] is described as follows: Absorption of sodium cefoxitin with varying concentrations of hexadecyl lysinate in rats, percent bioavailability (Example 9). It counts as in vivo, rat. As to conditions: for bioavailability: rat, serum, 2.5 mg, pH 6, rats, hexadecyl lysinate 0 mg/body, 2.5 mg sodium cefoxitin, pH 6. As to the method: Percent bioavailability was determined versus intravenous administration. Each animal received 2.5 mg sodium cefoxitin with varying amounts of hexadecyl lysinate.

A short description of data set [2]: Absorption of sodium cefoxitin with or without alcohol-lysine esters in rats, percent bioavailability versus intravenous (Example 6). As to conditions: for bioavailability: rat, serum, 2.5 mg; for effect as absorption promoter at 5 mg/dose (in words): 5 mg/dose level, comparison with hexadecyl lysinate. How it is done:
Blood samples were collected, sodium cefoxitin assayed, and "area-under-the-curve"* calculated. Percent bioavailability was determined versus intravenous administration. Each animal received 2.5 mg sodium cefoxitin ±5.0 mg alcohol-lysine ester. From 3 to 12 animals were used for each compound.

Data set [3] can be described thus: Absorption of cytarabine with or without hexadecyl lysinate in rats, percent bioavailability versus intravenous (Example 8). As to conditions: rat, in vivo, 2.5 mg, pH 6, rats, 2.5 mg cytarabine ± 5.0 mg hexadecyl lysinate, 250 μl, pH 6, versus intravenous. As to the method:
The absorption of cytarabine, an antineoplastic and antiviral agent, was tested in rats employing aqueous formulations of cytarabine and hexadecyl lysinate. The compounds were administered in a total volume of 250 μl at pH 6. Both rectal and duodenal sites in the intestine were tested. Blood samples were collected, cytarabine assayed, and "area-under-the-curve"* calculated. Percent bioavailability was determined versus intravenous administration. Each animal received 2.5 mg cytarabine ±5.0 mg hexadecyl lysinate. Three animals were used for each experiment.

A word on the bioavailability: it is dose-corrected exposure relative to a reference, in per cent. In the case of `CO[C@@]1(NC(=O)Cc2cccs2)C(=O)N2C(C(=O)O)=C(COC(N)=O)CS[C@@H]21` [Cefoxitin], the bioavailability in data set [1] (duodenal, read-out: Percent Cefoxitin Bioavailability (mean ± SE), Duodenal) was 1%; in data set [1] (rectal, read-out: Percent Cefoxitin Bioavailability (mean ± SE), Rectal) it was 2 ± 1.1%; in data set [2] (intestinal absorption of sodium cefoxitin, with 5 mg/dose promoter (hexadecyl lysinate) or without), 1%; in data set [2] (pH 7, Percent Cefoxitin Bioavailability (mean ± SE), Duodenal, rats, 2.5 mg sodium cefoxitin ± 5.0 mg alcohol-lysine ester, 250 μl, pH 7, versus intravenous) it was 1%; in data set [2] (pH 7, Percent Cefoxitin Bioavailability (mean ± SE), Rectal, rats, 2.5 mg sodium cefoxitin ± 5.0 mg alcohol-lysine ester, 250 μl, pH 7, versus intravenous), 2 ± 1.1%.
`Nc1ccn([C@@H]2O[C@H](CO)[C@@H](O)[C@@H]2O)c(=O)n1` [Cytarabine]: the bioavailability in data set [3] (duodenal, read-out: Percent Cytarabine Bioavailability (mean ± SE), Duodenal) stood at 5%; in data set [3] (rectal, read-out: Percent Cytarabine Bioavailability (mean ± SE), Rectal), 6 ± 1.7%.
On to `O=C(O)CN(CCN(CC(=O)O)CC(=O)O)CC(=O)O` [EDTA], for which the “effect as absorption promoter at 5 mg/dose (in words)” value in data set [2] is “ineffective”.
On to `CCCCCCCCCCCCCCCCOC(=O)[C@@H](N)CCCCN` [Hexadecyl lysinate], for which, in data set [1] (Example 9), the “concentration dependence of absorption promoting effect (in words)” value is reported as “act in a concentration dependent manner”.
Take `O=C(O)c1ccccc1O` [salicylate]: the “effect as absorption promoter at 5 mg/dose (in words)” value in data set [2] is listed as “ineffective”.
